Reference: publication PMC4234468 (PLoS ONE, 2014)

Tests used:
[1] = target: T1, HA-β2AR (Homo sapiens, UniProt P07550); assay: whole-cell radioligand binding assay, [125I]-iodopindolol displacement, HA-β2AR; settings: HEK-293 cells expressing HA-β2AR alone or with IR
T1 construct: host or cells: HEK-293
Method: To establish a relationship between the luminescence/fluorescence signals generated by RLuc8 and GFP^2-tagged β2ARs and cell-surface receptor number, radioligand binding assays were carried out on whole cells as previously described [47]. […] An aliquot of cells (∼5×10^5) from each transfection was also transferred into a 60-mm dish for total luminescence/fluorescence measurements as described above. […] Determination of the radioactivity levels was performed in triplicate. Binding parameters were determined from displacement curves generated by a sigmoidal dose-response curve fit (GraphPad Prism 5.0). Receptor density (Bmax), expressed as the receptor number per cell, was calculated as previously described by Ramsay et al. [48]. Whole-cell radioligand binding assays were also performed with cells expressing β2AR alone or in combination with IR.

[2] = target: T1, HA-β2AR; assay: HA-β2AR internalization quantified by ELISA in HEK-293 cells; format: cell-based
Method: ELISA assays for the measurement of surface-expressed HA-β2AR and quantification of receptor internalization were performed as described previously. Briefly, HEK-293 cells were transiently transfected with either β2AR-RLuc8 alone or β2AR-RLuc8 and IR-GFP^2. One microgram of each receptor was used, and the total amount of cDNA used for transfection was kept uniform by adding empty pcDNA3.1 vector. […] After 48 h, cells were first subjected to a 2-h starvation period, and then were treated as required in HEPES-modified DMEM with 0.1% BSA for 30 min at 37°C before fixing with 4% paraformaldehyde for 20 min at 4°C. Cells were then washed 3 times in PBS and blocked (PBS containing 1% BSA) for 60 min at room temperature. Cells were kept at room temperature for all of the subsequent steps. First, cells were incubated for 2 h with anti-HA antibody at a 1∶600 dilution. After 3 washes, cells were incubated with anti-rat horseradish peroxidase-conjugated antibody at a 1∶1000 dilution. After extensive washing, the reaction was developed using the 3, 3′, 5, 5′-tetra-methylbenzidine (TMB) liquid substrate system. […] The absorbances were measured at 450 nm using the microplate reader Rosys Anthos 2010 (Anthos Labtec Instruments, Wals, Austria). […]
[…]. Data are expressed as the means ± S.E. from three independent experiments performed in triplicate. […]

[3] = system: β2AR in epidermoid carcinoma A431 cells; set-up: method as in PMID 14709719; settings: cited from earlier work
[4] = system: β2AR and IR receptor complexes; assay: BRET^2 saturation assay with agonist stimulation, β2AR and IR homo- and heteromers in HEK-293 cells; settings: data not shown
[5] = system: β2AR-RLuc; settings: β2AR-RLuc fusion construct; ref Vrecl et al. [47]; cited from earlier work

## insulin
[1]
  competition for binding against [125I]-iodopindolol: neither competed for binding
[2]
  amount of surface-expressed β2AR lost to internalization in response to insulin: ~15%
[2]; insulin 0.1 µM, 30 min, 37°C
  β2AR internalization (ELISA, Figure S1): did not induce marked β2AR internalization
[3]
  amount of surface-expressed β2AR lost to internalization in response to insulin: ~30%
[4]
  change in the BRET^2 signal on agonist stimulation: did not promote any detectable change

## CC(C)NCC(O)COc1cccc2[nH]ccc12 (stereo not shown) [pindolol]
[5]
  IC50: 0.94 ± 0.06 nM

## CC(C)NCC(O)c1ccc(O)c(O)c1 (stereo not shown) [isoproterenol, reference compound]
[4]
  change in the BRET^2 signal on agonist stimulation: did not promote any detectable change
